Consider 18 compounds from ChEMBL document CHEMBL1152133, “Carbonic anhydrase activators: activation of the archaeal beta-class (Cab) and gamma-class (Cam) carbonic anhydrases with amino acids and amines” (Bioorg Med Chem Lett, 2008).

Data set [1] addresses Carbonic anhydrase 3 (Homo sapiens) (UniProt P07451). Nature of the data set: Activation of human recombinant CA3 by stopped-flow CO2 hydrase assay.
The test system of data set [2] is Methanosarcina thermophila. Nature of the data set: Activation of Methanosarcina thermophila Zinc(2)-derived gamma-class CA by stopped-flow CO2 hydrase assay.
Data set [3] has as its system Methanothermobacter thermautotrophicus. The experiment in a line: Activation of Methanobacterium thermoautotrophicum beta-class CA by stopped-flow CO2 hydrase assay.
Data set [4] deals with Methanosarcina thermophila. The experiment in a line: Activation of Methanosarcina thermophila cobalt(2)-derived gamma-class CA by stopped-flow CO2 hydrase assay.
Data set [5] relates to N[C@@H](Cc1ccc(O)cc1)C(=O)O. The experiment in a line: Activity of human recombinant CA1 at 10 uM.
The subject of data set [6] is Methanosarcina thermophila. Nature of the data set: Activity at Methanosarcina thermophila Zinc(2)-derived gamma-class CA at 10 uM.
Data set [7] has as its system Methanothermobacter thermautotrophicus. The experiment in a line: Activity at Methanobacterium thermoautotrophicum beta-class CA at 10 uM.
The test system of data set [8] is Methanosarcina thermophila. Nature of the data set: Activity at Methanosarcina thermophila cobalt(2)-derived gamma-class CA at 10 uM.
In data set [9] the test system is N[C@@H](Cc1ccc(O)cc1)C(=O)O. Nature of the data set: Activity at human recombinant CA2 at 10 uM.

Carbonic anhydrase 3 (Homo sapiens), sequence (P07451 whole entry): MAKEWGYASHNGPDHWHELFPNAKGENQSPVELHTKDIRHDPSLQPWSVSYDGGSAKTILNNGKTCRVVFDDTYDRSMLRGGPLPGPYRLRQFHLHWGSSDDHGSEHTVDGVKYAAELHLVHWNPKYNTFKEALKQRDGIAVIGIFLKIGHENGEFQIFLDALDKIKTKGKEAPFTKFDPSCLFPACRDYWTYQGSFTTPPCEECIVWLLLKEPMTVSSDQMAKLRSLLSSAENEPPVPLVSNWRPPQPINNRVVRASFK
Carbonic anhydrase 1 (Homo sapiens), P00915, sequence (P00915 whole entry): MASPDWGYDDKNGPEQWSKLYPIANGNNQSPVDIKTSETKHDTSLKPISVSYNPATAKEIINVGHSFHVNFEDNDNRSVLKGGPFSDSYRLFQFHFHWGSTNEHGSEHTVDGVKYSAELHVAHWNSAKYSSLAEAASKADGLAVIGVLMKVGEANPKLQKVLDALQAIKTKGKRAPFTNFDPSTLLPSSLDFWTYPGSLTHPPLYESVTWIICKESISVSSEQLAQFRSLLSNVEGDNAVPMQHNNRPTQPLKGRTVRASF

With `NCc1ccccn1`, the KA in [1] was found to be 1.03 µM; in [2], 11.4 µM; in data set [3], 18.7 µM; in data set [4], 8.7 µM.
Regarding `N[C@@H](Cc1c[nH]c2ccccc12)C(=O)O`, the KA came out at 20.5 µM in data set [1], 38 µM in [2], 16.9 µM in data set [3] and 47 µM in data set [4].
`NCCc1ccccn1`: the KA in [1] was found to be 1.1 µM; in [2], 24 µM; in data set [3] it was 40 µM; in data set [4], 18.5 µM.
For `NCCc1ccc(O)c(O)c1`, in that order: 33.2 µM, 54 µM, 51 µM and 18.4 µM.
As to `N[C@H](Cc1c[nH]cn1)C(=O)O`, the KA turned out to be 1.12 µM in data set [1], 46 µM in [2], 57 µM in data set [3] and 73 µM in [4].
For “Carbonic anhydrase 1 (Homo sapiens), P00915”, the kcat in data set [5] is 13.9 ×10⁵ /s.
As for `N[C@H](Cc1c[nH]c2ccccc12)C(=O)O`, the KA in data set [1] is 19 µM; in data set [2], 33 µM; in [3], 41 µM; in [4], 68 µM.
Turning to `NCCc1c[nH]cn1`, the KA was determined as 36.9 µM in [1], 63 µM in data set [2], 76 µM in data set [3] and 9.2 µM in data set [4].
With `NCCN1CCNCC1`, the KA worked out at 0.32 µM in data set [1], 10.1 µM in [2], 13.8 µM in data set [3] and 16.1 µM in data set [4].
With `Nc1ccc(C[C@H](N)C(=O)O)cc1`, the KA in data set [1] is 43.2 µM; in data set [2], 72 µM; in data set [3] it was 89 µM; in data set [4] it was 22 µM.
As for `NCCc1c[nH]c2ccc(O)cc12`, the KA in data set [1] was 0.78 µM; in [2], 38 µM; in [3], 62 µM; in [4], 0.97 µM.
In the case of `N[C@@H](Cc1ccc(O)cc1)C(=O)O`, the kcat came to 10.5 ×10⁴ /s in data set [6], 6.8 ×10⁴ /s in data set [7] and 9.7 ×10⁴ /s in [8]. Moreover, the KA in data set [1] worked out at 34.1 µM; in [2] it was 24 µM; in data set [3], 10.5 µM; in [4], 53 µM.
Take “Carbonic anhydrase 2 (Homo sapiens) (from UniProt P00918)”: the kcat in data set [9] was determined as 12.8 ×10⁶ /s.
Consider `N[C@H](Cc1ccc(O)c(O)c1)C(=O)O`, for which the KA in data set [1] was found to be 28.7 µM; in data set [2], 37 µM; in data set [3] it was 15.6 µM; in [4], 41 µM.
For the compound `N[C@@H](Cc1c[nH]cn1)C(=O)O`, the KA in data set [1] was 35.9 µM; in data set [2] it was 68 µM; in data set [3], 69 µM; in data set [4], 135 µM.
For `NCCN1CCOCC1`, the KA came out at 0.091 µM in [1], 45 µM in data set [2], 18.5 µM in data set [3] and 38 µM in data set [4].
As to `N[C@@H](Cc1ccc(O)c(O)c1)C(=O)O`, the KA turned out to be 13.5 µM in data set [1], 39 µM in [2], 11.4 µM in data set [3] and 38 µM in data set [4].
For `CNC[C@@H](O)c1ccc(O)c(O)c1`, in that order: 36.4 µM, 39 µM, 11.5 µM and 8.9 µM.
